According to patent US20230295197A1, “STAT5 and STAT6 Degraders and Uses Thereof” (REGENTS OF THE UNIVERSITY OF MICHICAN, priority 2022, published 2023):
Read-outs that look alike come from different tables or passages of the source.

Biological target: T1, STAT6 (Homo sapiens, UniProt P42226)
T1 construct: endogenous in cells; host or cells: MOLM-16, KU-812, SKNO1, MB231, L1236
T1 sequence (P42226 1-847): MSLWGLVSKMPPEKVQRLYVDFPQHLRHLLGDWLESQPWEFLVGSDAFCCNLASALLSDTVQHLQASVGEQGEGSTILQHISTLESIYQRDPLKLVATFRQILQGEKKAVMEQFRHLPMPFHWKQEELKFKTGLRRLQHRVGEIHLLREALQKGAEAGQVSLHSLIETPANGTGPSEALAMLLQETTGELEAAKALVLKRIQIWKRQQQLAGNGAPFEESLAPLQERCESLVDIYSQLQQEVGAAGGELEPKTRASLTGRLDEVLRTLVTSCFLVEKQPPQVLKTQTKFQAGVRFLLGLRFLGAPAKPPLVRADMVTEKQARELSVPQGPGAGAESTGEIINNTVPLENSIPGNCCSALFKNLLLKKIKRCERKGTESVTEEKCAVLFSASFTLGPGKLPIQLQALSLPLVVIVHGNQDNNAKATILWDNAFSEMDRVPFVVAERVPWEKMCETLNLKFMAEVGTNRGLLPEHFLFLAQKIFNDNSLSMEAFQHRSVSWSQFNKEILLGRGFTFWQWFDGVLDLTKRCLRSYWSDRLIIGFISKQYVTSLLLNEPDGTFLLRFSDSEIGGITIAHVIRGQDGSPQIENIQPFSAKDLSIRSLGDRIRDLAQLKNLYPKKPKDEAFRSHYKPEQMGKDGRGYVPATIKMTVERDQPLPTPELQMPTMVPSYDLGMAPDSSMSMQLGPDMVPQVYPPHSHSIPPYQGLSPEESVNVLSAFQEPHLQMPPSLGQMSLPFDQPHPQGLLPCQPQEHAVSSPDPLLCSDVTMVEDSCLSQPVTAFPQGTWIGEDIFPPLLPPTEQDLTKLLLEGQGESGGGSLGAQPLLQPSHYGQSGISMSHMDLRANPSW
Assay: Immunoblotting (Western blot) analysis of STAT6 degradation efficiency of degraders in treated cells
Assay type: cell-based
In short: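 About 1 million cells per point, grown in 10% FBS medium at 37 °C/5% CO2, were exposed to compound at the indicated concentrations and times, then lysed in RIPA buffer with protease and phosphatase inhibitors. Equal protein (20-40 μg) was resolved by SDS-PAGE, blotted to PVDF, and probed with anti-STAT5, anti-STAT6 and anti-GAPDH antibodies.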

[1] = MOLM-16 cells, class symbols, read-out: DC50 S6 MOLM-16
[2] = L1236 cells, read-out: DC50 S6 L1236

Row | DC50 (MOLM-16 cells, numeric bound, read-out: DC50 S6 MOLM-16) [µM] | SMILES | DC50 [1] [µM] | DC50 [2] [µM]
1 |  | CC(C)(C)[C@H](NC(=O)c1cc2cc(C(F)(F)P(=O)(O)O)ccc2s1)C(=O)N1C[C@@H](OCC(=O)NCCCC#Cc2cccc3c2C(=O)N(C2CCC(=O)NC2=O)C3=O)C[C@H]1C(=O)N1CCC[C@H](c2ccccc2)C1 (stereo partly drawn) [Compound 497, ((2-(((2S)-1-((2S,4S)-4-(2-((5-(2-(2,6-dioxopiperidin-3-yl)-1,3-dioxoisoindolin-4-yl)pent-4-yn-1-yl)amino)-2-oxoethoxy)-2-((R)-3-phenylpiperidine-1-carbonyl)pyrrolidin-1-yl)-3,3-dimethyl-1-oxobutan-2-yl)carbamoyl)benzo[b]thiophen-5-yl)difluoromethyl)phosphonic acid] | > 10 | 
2 |  | Cc1ncsc1-c1ccc([C@H](C)NC(=O)[C@@H]2C[C@@H](O)CN2C(=O)[C@@H](NC(=O)CCCCCCNC(=O)COc2ccc3c(c2)CN(C(=O)[C@@H](NC(=O)c2cc4cc(C(F)(F)P(=O)(O)O)ccc4s2)C(C)(C)C)[C@H](C(=O)N2CCC[C@H](c4ccccc4)C2)C3)C(C)(C)C)cc1 [Compound 475, (difluoro(2-(((S)-1-((S)-7-(2-((7-(((S)-1-((2S,4R)-4-hydroxy-2-(((S)-1-(4-(4-methylthiazol-5-yl)phenyl)ethyl)carbamoyl)pyrrolidin-1-yl)-3,3-dimethyl-1-oxobutan-2-yl)amino)-7-oxoheptyl)amino)-2-oxoethoxy)-3-((R)-3-phenylpiperidine-1-carbonyl)-3,4-dihydroisoquinolin-2(1H)-yl)-3,3-dimethyl-1-oxobutan-2-yl)carbamoyl)benzo[b]thiophen-5-yl)methyl)phosphonic acid] | > 10 | 
3 |  | CC(C)(C)[C@H](NC(=O)c1cc2cc(C(F)(F)P(=O)(O)O)ccc2s1)C(=O)N1Cc2cc(OCC(=O)NCC#Cc3ccc4c(c3)C(=O)N(C3CCC(=O)NC3=O)C4=O)ccc2C[C@H]1C(=O)N1CCC[C@H](c2ccccc2)C1 (stereo partly drawn) [Compound 550, ((2-(((2S)-1-((3S)-7-(2-((3-(2-(2,6-dioxopiperidin-3-yl)-1,3-dioxoisoindolin-5-yl)prop-2-yn-1-yl)amino)-2-oxoethoxy)-3-((R)-3-phenylpiperidine-1-carbonyl)-3,4-dihydroisoquinolin-2(1H)-yl)-3,3-dimethyl-1-oxobutan-2-yl)carbamoyl)benzo[b]thiophen-5-yl)difluoromethyl)phosphonic acid] | > 10 | 
4 |  | Cc1ncsc1-c1ccc([C@H](C)NC(=O)[C@@H]2C[C@@H](O)CN2C(=O)[C@@H](NC(=O)CCCCNC(=O)CO[C@H]2C[C@@H](C(=O)N3CCO[C@H](c4ccccc4)C3)N(C(=O)[C@@H](NC(=O)c3cc4cc(C(F)(F)P(=O)(O)O)ccc4s3)C(C)(C)C)C2)C(C)(C)C)cc1 [Compound 428, (difluoro(2-(((S)-1-((2S,4S)-4-(2-((5-(((S)-1-((2S,4R)-4-hydroxy-2-(((S)-1-(4-(4-methylthiazol-5-yl)phenyl)ethyl)carbamoyl)pyrrolidin-1-yl)-3,3-dimethyl-1-oxobutan-2-yl)amino)-5-oxopentyl)amino)-2-oxoethoxy)-2-((R)-2-phenylmorpholine-4-carbonyl)pyrrolidin-1-yl)-3,3-dimethyl-1-oxobutan-2-yl)carbamoyl)benzo[b]thiophen-5-yl)methyl)phosphonic acid] | > 10 | > 10
5 |  | CC(C)(C)[C@H](NC(=O)c1cc2cc(C(F)(F)P(=O)(O)O)ccc2s1)C(=O)N1C[C@@H](OCC(=O)NCC#Cc2cccc3c2C(=O)N(C2CCC(=O)NC2=O)C3=O)C[C@H]1C(=O)N1CCC[C@H](c2ccccc2)C1 (stereo partly drawn) [Compound 493, ((2-(((2S)-1-((2S,4S)-4-(2-((3-(2-(2,6-dioxopiperidin-3-yl)-1,3-dioxoisoindolin-4-yl)prop-2-yn-1-yl)amino)-2-oxoethoxy)-2-((R)-3-phenylpiperidine-1-carbonyl)pyrrolidin-1-yl)-3,3-dimethyl-1-oxobutan-2-yl)carbamoyl)benzo[b]thiophen-5-yl)difluoromethyl)phosphonic acid] | > 10 | 
6 |  | Cc1ncsc1-c1ccc([C@H](C)NC(=O)[C@@H]2C[C@@H](O)CN2C(=O)[C@@H](NC(=O)CCCNC(=O)CO[C@H]2C[C@@H](C(=O)N3CCC[C@H](c4ccccc4)C3)N(C(=O)[C@@H](NC(=O)c3cc4cc(C(F)(F)P(=O)(O)O)ccc4s3)C(C)(C)C)C2)C(C)(C)C)cc1 [Compound 436, (difluoro(2-(((S)-1-((2S,4S)-4-(2-((4-(((S)-1-((2S,4R)-4-hydroxy-2-(((S)-1-(4-(4-methylthiazol-5-yl)phenyl)ethyl)carbamoyl)pyrrolidin-1-yl)-3,3-dimethyl-1-oxobutan-2-yl)amino)-4-oxobutyl)amino)-2-oxoethoxy)-2-((R)-3-phenylpiperidine-1-carbonyl)pyrrolidin-1-yl)-3,3-dimethyl-1-oxobutan-2-yl)carbamoyl)benzo[b]thiophen-5-yl)methyl)phosphonic acid] | > 10 | > 10
7 |  | CC(C)(C)[C@H](NC(=O)c1cc2cc(C(F)(F)P(=O)(O)O)ccc2s1)C(=O)N1C[C@@H](OCC(=O)NCCCCCCCCCC#Cc2cccc3c2C(=O)N(C2CCC(=O)NC2=O)C3=O)C[C@H]1C(=O)N1CCO[C@H](c2ccccc2)C1 (stereo partly drawn) [Compound 491, ((2-(((2S)-1-((2S,4S)-4-(2-((11-(2-(2,6-dioxopiperidin-3-yl)-1,3-dioxoisoindolin-4-yl)undec-10-yn-1-yl)amino)-2-oxoethoxy)-2-((R)-2-phenylmorpholine-4-carbonyl)pyrrolidin-1-yl)-3,3-dimethyl-1-oxobutan-2-yl)carbamoyl)benzo[b]thiophen-5-yl)difluoromethyl)phosphonic acid] | > 10 | 
8 |  | CC(C)(C)[C@H](NC(=O)c1cc2cc(C(F)(F)P(=O)(O)O)ccc2s1)C(=O)N1CCN(C(=O)CC(=O)NCC#Cc2ccc3c(c2)C(=O)N(C2CCC(=O)NC2=O)C3=O)C[C@H]1C(=O)N1CCC[C@H](c2ccccc2)C1 (stereo partly drawn) [Compound 522, ((2-(((2S)-1-((2S)-4-(3-((3-(2-(2,6-dioxopiperidin-3-yl)-1,3-dioxoisoindolin-5-yl)prop-2-yn-1-yl)amino)-3-oxopropanoyl)-2-((R)-3-phenylpiperidine-1-carbonyl)piperazin-1-yl)-3,3-dimethyl-1-oxobutan-2-yl)carbamoyl)benzo[b]thiophen-5-yl)difluoromethyl)phosphonic acid] | > 10 | 
9 |  | Cc1ncsc1-c1ccc([C@H](C)NC(=O)[C@@H]2C[C@@H](O)CN2C(=O)[C@@H](NC(=O)CCCCCCCCNC(=O)COc2ccc3c(c2)CN(C(=O)[C@@H](NC(=O)c2cc4cc(C(F)(F)P(=O)(O)O)ccc4s2)C(C)(C)C)[C@H](C(=O)N2CCC[C@H](c4ccccc4)C2)C3)C(C)(C)C)cc1 [Compound 477, (difluoro(2-(((S)-1-((S)-7-(2-((9-(((S)-1-((2S,4R)-4-hydroxy-2-(((S)-1-(4-(4-methylthiazol-5-yl)phenyl)ethyl)carbamoyl)pyrrolidin-1-yl)-3,3-dimethyl-1-oxobutan-2-yl)amino)-9-oxononyl)amino)-2-oxoethoxy)-3-((R)-3-phenylpiperidine-1-carbonyl)-3,4-dihydroisoquinolin-2(1H)-yl)-3,3-dimethyl-1-oxobutan-2-yl)carbamoyl)benzo[b]thiophen-5-yl)methyl)phosphonic acid] | > 10 | 
10 |  | CC(C)(C)[C@H](NC(=O)c1cc2cc(C(F)(F)P(=O)(O)O)ccc2s1)C(=O)N1Cc2cc(OCC(=O)NCC#Cc3ccc4c(c3)C(=O)N(C3CCC(=O)NC3=O)C4=O)ccc2C[C@H]1C(=O)N1CCO[C@H](c2ccccc2)C1 (stereo partly drawn) [Compound 536, ((2-(((2S)-1-((3S)-7-(2-((3-(2-(2,6-dioxopiperidin-3-yl)-1,3-dioxoisoindolin-5-yl)prop-2-yn-1-yl)amino)-2-oxoethoxy)-3-((R)-2-phenylmorpholine-4-carbonyl)-3,4-dihydroisoquinolin-2(1H)-yl)-3,3-dimethyl-1-oxobutan-2-yl)carbamoyl)benzo[b]thiophen-5-yl)difluoromethyl)phosphonic acid] | 1 to 10 | 
11 | > 0.3 | CC(C)(C)[C@H](NC(=O)c1cc2cc(C(F)(F)P(=O)(O)O)ccc2s1)C(=O)N1C[C@@H](OCCCCCCC#Cc2cccc3c2CN(C2CCC(=O)NC2=O)C3=O)C[C@H]1C(=O)N1CCOC(c2ccc(F)c(Cl)c2)C1 (stereo partly drawn) [Compound 608, ((2-(((2S)-1-((2S,4S)-2-(2-(3-chloro-4-fluorophenyl)morpholine-4-carbonyl)-4-((8-(2-(2,6-dioxopiperidin-3-yl)-1-oxoisoindolin-4-yl)oct-7-yn-1-yl)oxy)pyrrolidin-1-yl)-3,3-dimethyl-1-oxobutan-2-yl)carbamoyl)benzo[b]thiophen-5-yl)difluoromethyl)phosphonic acid] |  | 
